Laboratory results published in ChEMBL document CHEMBL1150505 (Bioorg Med Chem Lett, 1994).

Legend:
[1] = organism: Homo sapiens; experiment: Compound was tested for Leukotriene B4-mediated Up-regulation of human neutrophil CD11b/CD18; assay type: functional
[2] = biological target: Leukotriene B4 receptor 1 (Homo sapiens, UniProt Q15722); experiment: LTB4 receptor antagonist activity was determined by inhibition of specific binding of [3H]LTB4 in human neutrophil
[3] = LTB4 receptor antagonist activity was determined by inhibition of specific binding of [3H]LTB4 in guinea pig lung membranes

Sequence of Leukotriene B4 receptor 1 (Q15722 whole entry): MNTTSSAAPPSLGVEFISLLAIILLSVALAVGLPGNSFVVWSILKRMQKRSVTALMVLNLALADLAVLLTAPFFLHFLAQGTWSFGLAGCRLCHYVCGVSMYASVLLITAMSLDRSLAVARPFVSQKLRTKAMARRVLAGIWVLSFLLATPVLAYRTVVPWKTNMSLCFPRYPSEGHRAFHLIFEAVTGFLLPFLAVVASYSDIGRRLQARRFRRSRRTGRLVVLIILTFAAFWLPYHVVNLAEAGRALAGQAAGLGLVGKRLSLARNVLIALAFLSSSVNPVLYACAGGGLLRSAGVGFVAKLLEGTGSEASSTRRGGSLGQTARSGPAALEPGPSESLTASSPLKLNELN

Row | IC50 [1] | Ki [2] | Ki [3] | SMILES
1 | 2.6 nM |  |  | CCc1cc(-c2ccc(F)cc2)c(O)cc1OCCCOc1cccc(Oc2ccc(C(=O)O)cc2)c1CCC(=O)O
2 | 4.7 nM |  |  | CCc1cc(-c2ccc(F)cc2)c(O)cc1OCCCOc1ccc(C#CCCC(=O)O)cc1CCC(=O)O
3 | 1800 nM | 39 nM |  | CCc1cc(-c2ccc(F)cc2)c(O)cc1OCCCOc1cc(Oc2ccc(C(=O)O)cc2)ccc1CCC(=O)O
4 |  |  | 0.04 nM | CCc1cc(-c2ccc(F)cc2)c(O)cc1OCCCOc1ccc2c(=O)c3cc(C(=O)O)ccc3oc2c1CCC(=O)O
